The text below walks through data of patent EP2077092A2, “System and Methods for Screening or Analyzing Targets” (Taipei Veterans General Hospital, priority 2007, dated 2009).

One series concerns c-FLIP promoter. The series can be described thus: c-FLIP promoter luciferase assay in fluoxetine-treated NSCs. The format is cell-based, Sprague-Dawley rats. As to conditions: fluoxetine 20 µm; full-length and deletion mutants of the c-FLIP promoter in NSCs. On the procedure:
(§1) All animal used were treated in accordance with the Animal Care and Use Committee guideline at Taipei Veterans General Hospital. Adult Sprague-Dawley rats (8 weeks old, 250 g) were anesthetized with intraperitoneal phenobarbital (Sigma, USA). The location of their brains was mapped: then, the brain was surgically separated from the hippocampus region with the procedure. Tissues from the hippocampus of the adult SD rats were dissociated and incubated in Hank's balanced salt solution (HB'SS) containing collagenase (78 units/ml) and hyaluronidase (38 units/ml) for 10 mins at 37°C. The tissues were then mechanically dissected and placed in a trypsin solution (1.33 mg/ml) at 37°C for another 10 mins. Dissociated cells were then centrifuged at 150g for 5 mins. The enzyme solution was then removed and replaced with serum-free culture media composed of Dulbecco modified Eagle medium (DMEM) and F-12 nutrient (1:1) including insulin (25 µg/mL), transferrin (100 µg/mL), progesterone (20 nM), putrescine (60µM), sodium selenite (30 nM), and human […] epidermal growth factor (EGF) 20 ng/mL and fibroblast growth factor-basic (bFGF) 20 ng/mL (R&D Systems, Minneapolis, MN). Viable cells were counted by trypan blue exclusion and plated as 5000 cells/200 µL per well in 96-well plates (Corning, Acton, MA) with no substrate pretreatment. […]

In a further series the test system is c-FLIP. The series can be described thus: c-FLIP mRNA expression in fluoxetine-treated NSCs (real-time RT-PCR). The format is cell-based, Sprague-Dawley rats. As to conditions: FL-treated NSCs. On the procedure:
(§2) All animal used were treated in accordance with the Animal Care and Use Committee guideline at Taipei Veterans General Hospital. Adult Sprague-Dawley rats (8 weeks old, 250 g) were anesthetized with intraperitoneal phenobarbital (Sigma, USA). The location of their brains was mapped: then, the brain was surgically separated from the hippocampus region with the procedure. Tissues from the hippocampus of the adult SD rats were dissociated and incubated in Hank's balanced salt solution (HB'SS) containing collagenase (78 units/ml) and hyaluronidase (38 units/ml) for 10 mins at 37°C. The tissues were then mechanically dissected and placed in a trypsin solution (1.33 mg/ml) at 37°C for another 10 mins. Dissociated cells were then centrifuged at 150g for 5 mins. […] Viable cells were counted by trypan blue exclusion and plated as 5000 cells/200 µL per well in 96-well plates (Corning, Acton, MA) with no substrate pretreatment.
For real-time RT-PCR, the total RNA was extracted using the RNAeasy kit (Qiagen, Valencia, CA, USA) as previously described C.L. Kao et al., Mod Pathol 18 (2005) 769-778.[15]. […] The quantification in the unknown samples was performed by the LightCycler Relative Quantification Software version 3.3 (Roche Molecular Systems, Alameda, CA, USA). […]
A general note: Quantitative PCR measures a nucleic acid by following its amplification.

In the next series the test system is c-FLIPL. The series can be described thus: c-FLIP protein expression in fluoxetine-treated NSCs (Western analysis). Type of series: cell-based, Sprague-Dawley rats. As to conditions: FL-treated NSCs. On the procedure: as §2, with “pretreatment. […]” for “pretreatment.”
An avidin-biotin complex method was used for the immunohistochemical staining in the differentiated NSCs. […] Immunoreactive signals were detected with a mixture of biotinylated rabbit antimouse IgG and Fluoesave (Calbiochem, La Jolla, CA, USA) under immunofluorescent microscope (Olympus FV300).

In series [1] the test system is inactive caspases 8 (pro-form). The series can be described thus: Protein level of inactive caspase 8 (pro-form) in fluoxetine-treated NSCs. The format is cell-based, Sprague-Dawley rats. As to conditions: different concentrations of fluoxetine treatment. On the procedure:
as §1

The subject of series [2] is inactive caspases 3 (pro-form). The series can be described thus: Protein level of inactive caspase 3 (pro-form) in fluoxetine-treated NSCs. The format is cell-based, Sprague-Dawley rats. As to conditions: different concentrations of fluoxetine treatment. On the procedure:
as §1

The test system of the next series is Bcl-2 protein. The series can be described thus: Bcl-2 protein expression in NSCs by western blot and immunohistochemistry. The format is cell-based, Sprague-Dawley (SD) rats. As to conditions: siRNA or MAPK inhibitor added to IM-treated NSCs. On the technique in general: In western blotting, separated proteins are transferred to a membrane and probed.
Series [3] concerns LPS-treated NSCs. The series can be described thus: MTT cell survival of LPS-treated NSCs. Type of series: cell-based, Sprague-Dawley (SD) rats. As to conditions: siRNA or U0126 added to LPS- and IM-treated NSCs.
The test system of the next series is caspase 8. The series can be described thus: Caspase 8 activity ELISA in LPS-treated NSCs. The format is cell-based, Sprague-Dawley (SD) rats. As to conditions: siRNA or U0126 (40 µM) added to LPS- and IM-treated NSCs. For orientation: An ELISA detects its analyte on a solid surface through an enzyme-linked reagent.
The next series has as its system caspase 3. The series can be described thus: Caspase 3 activity ELISA in LPS-treated NSCs. Type of series: cell-based, Sprague-Dawley (SD) rats. As to conditions: siRNA or U0126 (40 µM) added to LPS- and IM-treated NSCs.
Series [4] concerns LPS-treated NSCs. The series can be described thus: TUNEL assay of LPS-induced apoptosis in NSCs. Type of series: cell-based, Sprague-Dawley (SD) rats. As to conditions: siRNA or U0126 (40 µM) added to LPS- and IM-treated NSCs.
The next series relates to IL-1β. The series can be described thus: IL-1β ELISA in LPS-treated NSCs. Type of series: cell-based, Sprague-Dawley (SD) rats. As to conditions: siRNA or U0126 (40 µM) added to LPS- and IM-treated NSCs.
The test system of another series is IL-6. The series can be described thus: IL-6 ELISA in LPS-treated NSCs. The format is cell-based, Sprague-Dawley (SD) rats. As to conditions: siRNA or U0126 (40 µM) added to LPS- and IM-treated NSCs.
In a further series the test system is TNF-α. The series can be described thus: TNF-α ELISA in LPS-treated NSCs. Type of series: cell-based, Sprague-Dawley (SD) rats. As to conditions: siRNA or U0126 (40 µM) added to LPS- and IM-treated NSCs.
In series [5] the test system is NSCs. The series can be described thus: Immunofluorescent assay of MAP-2-positive cells in differentiating NSCs. Type of series: cell-based, Sprague-Dawley (SD) rats. As to conditions: siRNA or U0126 added, Day 7 culture of IM-treated NSCs.
Series [6] has as its system NSCs. The series can be described thus: Immunofluorescent assay of serotonin (5-HT)-positive cells in differentiating NSCs. As to conditions: siRNA or U0126 added, Day 7 culture of IM-treated NSCs. Type of series: cell-based, Sprague-Dawley (SD) rats.
Series [7] concerns NSCs. The series can be described thus: Microdialysis with HPLC-ECD of 5-HT in the culture medium of IM-treated NSCs. Type of series: cell-based, Sprague-Dawley (SD) rats. As to conditions: siRNA or U0126 added, Day 7 and Day 14, p<0.05.
Details of series [8]: species or system Sprague-Dawley rats. As to conditions: in vivo, iv, 30 mg/kg, 360 min. On the procedure:
Adult, male Sprague-Dawley rats (280-350 g) were obtained from the Laboratory Animal Center at National Yang-Ming University (Taipei, Taiwan). These animals were specifically pathogen-free and were allowed to acclimate to their environmentally controlled quarters (24 ± 1°C and 12:12 h light-dark cycle) for at least 5 days before the experiments began. At the start of experiments, the rats were anesthetized with urethane 0.8 g/ml and chloralose 0.08 g/ml ([…], i.p.). Throughout the experimental period, anesthesia was maintained by administering one quarter of the initial dose at each hour. The experimental animals were kept warm with a heating pad throughout the experiments.
The HPLC system consisted of a chromatographic pump (BAS PM-80, Bioanalytical System, West Lafayette, IN, USA), an on-line injector (CMA/160, Stockholm, Sweden) equipped with a 20 µl sample loop and a UV detector (Soma S-3702, Tokyo, Japan). […] Output signal from the HPLC-UV was recorded using an EZChrom chromatographic data system (Scientific Software, San Ramon, CA, USA). […]
For in vivo recovery, normal saline solution containing cefoperazone (50 or 100 µg/ml) were pumped through the probes at a constant flow rate (2 µl/min) using the infusion pump (CMA/100). After a stabilization period of 2 h, the inlet (Cin) and outlet (Cout) concentrations of cefoperazone were determined by HPLC. […]

Consider `CNCCC(Oc1ccc(C(F)(F)F)cc1)c1ccccc1` (centres unmarked) [FL, fluoxetine], for which, in the series with c-FLIP promoter, the “activation of c-FLIP promoter (luciferase assay)” value was “c-FLIP promoter region from bp -414 to -133 was necessary for its activation by FL”. Moreover, the “mRNA expression of c-FLIP” value with c-FLIP is given as “up-regulated”. Also, in the series on c-FLIPL, the “protein expression of c-FLIP” value is given as “up-regulated”. Moreover, the “protein levels of inactive caspases 8 (pro-form)” value in series [1] was “not decreased”. The “protein levels of inactive caspases 3 (pro-form)” value in series [2] was “not decreased”.
On to `N#CC(=C(/N)Sc1ccccc1N)/C(C#N)=C(\N)Sc1ccccc1N` [U0126], for which the “Bcl-2 expression induced by IM in NSCs” value with Bcl-2 protein is listed as “effectively blocked”. Also, the “cell viability in the LPS-treated NSCs with IM” value with LPS-treated NSCs [3] is on record as “dramatically decreased”. The “apoptotic activities (caspase 8) in LPS- and IM-treated NSCs” value in the series on caspase 8 is recorded as “significantly enhanced”. Also, the “apoptotic activities (caspase 3) in LPS- and IM-treated NSCs” value in the series on caspase 3 was “significantly enhanced”. For the same compound, in the series on LPS-treated NSCs [4], the “apoptotic activities (TUNEL) in LPS- and IM-treated NSCs” value is “significantly enhanced”. Moreover, the “levels of IL-1β in LPS-treated NSCs with IM” value with IL-1β is listed as “significantly increased”. Further, in the series with IL-6, the “levels of IL-6 in LPS-treated NSCs with IM” value is reported as “significantly increased”. Also, the “levels of TNF-α in LPS-treated NSCs with IM” value in the series on TNF-α is “significantly increased”. In the series on NSCs [5], the “percentages of MAP-2-positive cells in IM-treated NSCs” value is recorded as “significantly decrease”. The “percentages of serotonin (5-HT)-positive cells in IM-treated NSCs” value in the series with NSCs [6] is reported as “significantly decrease”. Besides, the “production of 5-HT of the IM-treated NSCs” value in the series on NSCs [7] is given as “significantly diminished”.
As to `CCN1CCN(C(=O)N[C@@H](C(=O)N[C@@H]2C(=O)N3C(C(=O)O)=C(CSc4nnnn4C)CS[C@H]23)c2ccc(O)cc2)C(=O)C1=O` [cefoperazone], the “cefoperazone in microdialysate from rat biliary duct” value in [8] was 27.8 µg/mL.
